In US20140294849A1, “COMPOSITIONS AND USES” (GLAXOSMITHKLINE BIOLOGICALS SA, priority 2011, published 2014):

What was measured:
[1] = system: Lineage-CD11b+ monocytes in peripheral blood; assay: Monocyte analysis and counting after adjuvant injection in mice; assay type: in vivo, C57BL/6 mice; conditions: Example 12, single i.m. injection
Experimental: (§1) 24-Hours after injection of the TLR adjuvants, peripheral blood was drawn from C57BL/6 mice via cardiac puncture with lithium-heparin as anticoagulant. Red blood cell lysis was performed twice on pooled blood with Ammonium Chloride-based Buffer (Sigma, Steinheim, Germany) and cells were counted with the EasyCount™ System (Immunicon). […] Cells were finally washed three times and fixed for 15 min. with a 2% paraformaldehyde solution in PBS. Fluorescence minus one (FMO) controls were always included in the assays for fluorescent compensation setting. Samples were acquired on a flow cytometer (BD FACSCanto II) and data analyzed with the FACSDiva software (BD Biosciences). Monocytes were identified by their Side/Forward scatter properties and gated as CD3-/CD45R/B220-/Ly-6G-/NK1.1-(Lineage-)/CD11b+ cells. CD11b+ monocyte frequency was reported as a percentage of the total cells excluding debris.
as §1, with “24 hours” for “24-Hours”, “each immunomodulator,” for “the TLR adjuvants,”, “min” for “min.”, “monocytes” for “monocyte”
Cells were finally washed twice and fixed for 15 min. with a 2% paraformaldehyde solution in PBS. FMOs controls were always included in the assays. Samples were acquired on a flow cytometer (BD FACSCanto II) and data analyzed with the FACSDiva software (BD Biosciences). Monocytes were identified and counted by their Side/Forward scatter properties, excluding debris and gated as CD3-/CD45R/B220-/Ly-6G-/NK1.1-(Lineage-)/CD11 b+ cells.

[2] = system: CD11b+ peripheral blood monocytes; assay: Ex vivo uptake assay of Aβ1-42; assay type: cell-based, C57BL/6 mice; conditions: Example 14; AS01B mouse full dose (5 ug per mouse) or CRX601 2 μg, i.m.
Experimental: Preparation of cells: Peripheral blood was drawn from C57BL/6 mice via cardiac puncture with lithium-heparin as anticoagulant, 24-hours after injection of the adjuvants used herein. Red blood cell lysis was performed twice on pooled blood with Ammonium Chloride-based Buffer (Sigma, Steinheim, Germany) and cells were counted with the EasyCount™ System (Immunicon). […]
FACS analysis: cells were harvested after incubation with fluorescent Aβ peptide with Trypsin/EDTA and cold PBS and washed three times. 500,000 cells were incubated in 96-well plate for 10 min. on ice in the presence of Rat anti-Mouse CD16/CD32 (clone 2.4G2—BD Fc Block™) and further stained for 30 min. with a combination of the following directly conjugated antibodies at their pre-determined optimal concentration: PE-Hamster anti-Mouse CD3 (clone 145-2C11), Rat anti-Mouse CD45R/B220 (clone RA3-6B2), Rat anti-Mouse Ly-6G (clone 1A8), Mouse anti-Mouse NK1.1 (clone PK136), APC-conjugated Rat anti-Mouse CD11b (clone M1/70), PE-Cy7-conjugated Hamster anti-Mouse CD11c (clone HL3), (all from BD PharMingen). […]
Samples were acquired on a flow cytometer (BD FACSCanto II) and data analyzed with the FACSDiva software (BD Biosciences). […]

CCCCCCCCCCC[C@H](CC(=O)N[C@H]1[C@H](OC[C@H](NC(=O)C[C@@H](CCCCCCCCCCC)OCCCCCCCCCC)C(=O)O)O[C@H](CO)[C@@H](OP(=O)(O)O)[C@@H]1OC(=O)C[C@@H](CCCCCCCCCCC)OCCCCCCCCCC)OCCCCCCCCCC [CRX601]
monocyte effect at 20 μg dose [1]: down modulated | dose of maximum monocyte response ([1]; 0.2 to 20 ug/mouse): 10 µg | dose enough to trigger an increase of the monocyte count ([1]; 24 hrs, compared to PBS): 1 µg | ex vivo uptake of Aβ42 by monocytes compared to PBS group [2]: higher amount of Aβ42
